Among the data in US10392630B2, “Plants having increased tolerance to herbicides” (BASF AGRO B.V., priority 2013, dated 2019) are IC50 values, retold here.

The test system of assay [1] is Alopecurus wildtype PPO (ALOMY), PPO herbicide sensitive PPO2, SEQ ID NO 2. Nature of the assay: PPO enzyme assay, dose-response (fluorescence), wildtype Alopecurus PPO2. The assay is classed as biochemical, Alopecurus myosuroides. The settings on record: Table 3b; SEQ ID NO 2, WT.
In assay [2] the target is Alopecurus mutant PPO (ALOMY), SEQ ID NO 2 with amino acid substitution. The assay can be described thus: PPO enzyme assay, dose-response (fluorescence), mutated Alopecurus PPO2. The assay is classed as biochemical, Alopecurus myosuroides.

Like-named read-outs stand apart in the source and are kept apart here.

What is called IC50 is the concentration that gives 50% inhibition. Read a high IC50 as lower potency. For `C#CCN1C(=O)C(F)(F)Oc2cc(F)c(-n3c(=O)cc(C(F)(F)F)n(C)c3=O)cc21` [1-methyl-6-(trifluoromethyl)-3-(2,2,7-trifluoro-3-oxo-4-prop-2-ynyl-1,4-benzoxazin-6-yl)pyrimidine-2,4-dione], in assay [1], inhibition was half-maximal at 0.189 nM (IC50).

`COC(Oc1ccccc1Oc1cc(-n2c(=O)cc(C(F)(F)F)n(C)c2=O)c(F)cc1Cl)C(=O)OCC(F)F` (stereo not drawn) [2,2-difluoroethyl 2-[2-[2-chloro-4-fluoro-5-[3-methyl-2,6-dioxo-4-(trifluoromethyl)pyrimidin-1-yl]phenoxy]phenoxy]-2-methoxy-acetate] yielded a half-maximal inhibitory concentration (IC50) in assay [1] of 0.335 nM. Same read-out and setting: as for `C#CCN1C(=O)C(F)(F)Oc2cc(F)c(N3C(=O)C4=C(CCCC4)C3=O)cc21` [2-(2,2,7-trifluoro-3-oxo-4-prop-2-ynyl-1,4-benzoxazin-6-yl)-4,5,6,7-tetrahydroisoindole-1,3-dione], the figure is 0.243 nM; as for `CCOCCOC(=O)C(OC)Oc1ccccc1Oc1cc(-n2c(=O)cc(C(F)(F)F)n(C)c2=O)c(F)cc1Cl` (stereo not drawn) [2-ethoxyethyl 2-[2-[2-chloro-4-fluoro-5-[3-methyl-2,6-dioxo-4-(trifluoromethyl)pyrimidin-1-yl]phenoxy]phenoxy]-2-methoxy-acetate], 0.816 nM. The same measure, in the same setting: as for `COC(Oc1ccccc1Oc1cc(-n2c(=O)cc(C(F)(F)F)n(C)c2=O)c(F)cc1Cl)C(=O)OCc1ccncc1` (stereo not drawn) [4-pyridylmethyl 2-[2-[2-chloro-4-fluoro-5-[3-methyl-2,6-dioxo-4-(trifluoromethyl)pyrimidin-1-yl]phenoxy]phenoxy]-2-methoxy-acetate], the figure is 0.671 nM; as for `COC(Oc1ccccc1Oc1cc(-n2c(=O)cc(C(F)(F)F)n(C)c2=O)c(F)cc1Cl)C(=O)OCC1(C)CC1` (stereo not drawn) [(1-methylcyclopropyl)methyl 2-[2-[2-chloro-4-fluoro-5-[3-methyl-2,6-dioxo-4-(trifluoromethyl)pyrimidin-1-yl]phenoxy]phenoxy]-2-methoxy-acetate], 0.751 nM. Take `O=C(O)c1cc(Oc2ccc(C(F)(F)F)cc2Cl)ccc1[N+](=O)[O-]` [ACIFLUORFEN, 5-(2-CHLORO-4-TRIFLUOROMETHYL-PHENOXY)-2-NITRO-BENZOIC ACID]: the values for the IC50 in assay [1] and in assay [2] were 1140 nM and no less than 10000 nM, respectively. The compound `C=CCOC(=O)C(C)(C)OC(=O)c1cc(-n2c(=O)cc(C(F)(F)F)n(C)c2=O)ccc1Cl` [BUTAFENACIL] registered an IC50 in assay [1] of 0.0131 nM. In assay [1], `CCOC(=O)C(Cl)Cc1cc(-n2nc(C)n(C(F)F)c2=O)c(F)cc1Cl` (stereo not drawn) [CARFENTRAZONE-ETHYL] displayed an IC50 of 1.47 nM. Take `CCOC(=O)/C(Cl)=C/c1cc(N2C(=O)C3=C(CCCC3)C2=O)ccc1Cl` [CINIDON-ETHYL, ethyl (Z)-2-chloro-3-[2-chloro-5-(1,3-dioxo-4,5,6,7-tetrahydroisoindol-2-yl)phenyl]prop-2-enoate]: inhibition in assay [1] was half-maximal at 81.2 nM (IC50). On the same count and under the same terms, as for `C#CCN1C(=O)COc2cc(F)c(N3C(=O)C4=C(CCCC4)C3=O)cc21` [FLUMIOXAZIN, 2-(7-fluoro-3-oxo-4-prop-2-ynyl-1,4-benzoxazin-6-yl)-4,5,6,7-tetrahydroisoindole-1,3-dione], the figure is 0.144 nM. In turn, `CS(=O)(=O)NC(=O)c1cc(Oc2ccc(C(F)(F)F)cc2Cl)ccc1[N+](=O)[O-]` [FOMESAFEN] showed an IC50 in assay [1] of 90.3 nM. Same read-out and setting: for `CCOC(=O)C(C)OC(=O)c1cc(Oc2ccc(C(F)(F)F)cc2Cl)ccc1[N+](=O)[O-]` (stereo not drawn) [LACTOFEN, (2-ethoxy-1-methyl-2-oxo-ethyl) 5-[2-chloro-4-(trifluoromethyl)phenoxy]-2-nitro-benzoate] the value was 18.7 nM. The same measure, in the same setting: as for `CCOc1cc(Oc2ccc(C(F)(F)F)cc2Cl)ccc1[N+](=O)[O-]` [OXIFLUORFEN, 2-CHLORO-1-(3-ETHOXY-4-NITROPHENOXY)-4-(TRIFLUOROMETHYL)BENZENE], the figure is 8.24 nM. For the compound `CCOC(=O)COc1ncccc1Oc1cc(-n2c(=O)cc(C(F)(F)F)n(C)c2=O)c(F)cc1Cl` [S-3100, ethyl 2-[[3-[2-chloro-4-fluoro-5-[3-methyl-2,6-dioxo-4-(trifluoromethyl)pyrimidin-1-yl]phenoxy]-2-pyridyl]oxy]acetate], the IC50 in assay [1] stood at 0.0645 nM; in assay [2], 950 nM; in assay [2] (listed as S-3101), 0.552 nM; in assay [2] (listed as S-3102), 2.37 nM; in assay [2] (listed as S-3103), 992 nM; in assay [2] (listed as S-3104), 12.1 nM.

Regarding `COC(Oc1ccccc1Oc1cc(-n2c(=O)cc(C(F)(F)F)n(C)c2=O)c(F)cc1Cl)C(=O)OC1CCCCC1` (stereo not drawn) [cyclohexyl 2-[2-[2-chloro-4-fluoro-5-[3-methyl-2,6-dioxo-4-(trifluoromethyl)pyrimidin-1-yl]phenoxy]phenoxy]-2-methoxy-acetate], in assay [1], the midpoint of inhibition, the IC50, lay at 2.99 nM. Same read-out and setting: for `COC(=O)C(OC)Oc1ccccc1Oc1cc(-n2c(=O)cc(C(F)(F)F)n(C)c2=O)c(F)cc1Cl` (stereo not drawn) [methyl 2-[2-[2-chloro-4-fluoro-5-[3-methyl-2,6-dioxo-4-(trifluoromethyl)pyrimidin-1-yl]phenoxy]phenoxy]-2-methoxy-acetate] the value was 0.194 nM. On the same count and under the same terms, for OXADIARGYL the value was 1.17 nM.
